Measurements taken from patent US11104661B1, “Inhibiting human integrin (α-4) (β-7)” (Morphic Therapeutic, Inc., priority 2019, dated 2021).
Read-outs that look alike come from different tables or passages of the source.

Molecular target: T1, α4β7 (Homo sapiens, UniProt P13612+P26010)
T1 construct: endogenous in cells; host or cells: RPMI 8866 cells
T1 sequence (P13612 34-1032): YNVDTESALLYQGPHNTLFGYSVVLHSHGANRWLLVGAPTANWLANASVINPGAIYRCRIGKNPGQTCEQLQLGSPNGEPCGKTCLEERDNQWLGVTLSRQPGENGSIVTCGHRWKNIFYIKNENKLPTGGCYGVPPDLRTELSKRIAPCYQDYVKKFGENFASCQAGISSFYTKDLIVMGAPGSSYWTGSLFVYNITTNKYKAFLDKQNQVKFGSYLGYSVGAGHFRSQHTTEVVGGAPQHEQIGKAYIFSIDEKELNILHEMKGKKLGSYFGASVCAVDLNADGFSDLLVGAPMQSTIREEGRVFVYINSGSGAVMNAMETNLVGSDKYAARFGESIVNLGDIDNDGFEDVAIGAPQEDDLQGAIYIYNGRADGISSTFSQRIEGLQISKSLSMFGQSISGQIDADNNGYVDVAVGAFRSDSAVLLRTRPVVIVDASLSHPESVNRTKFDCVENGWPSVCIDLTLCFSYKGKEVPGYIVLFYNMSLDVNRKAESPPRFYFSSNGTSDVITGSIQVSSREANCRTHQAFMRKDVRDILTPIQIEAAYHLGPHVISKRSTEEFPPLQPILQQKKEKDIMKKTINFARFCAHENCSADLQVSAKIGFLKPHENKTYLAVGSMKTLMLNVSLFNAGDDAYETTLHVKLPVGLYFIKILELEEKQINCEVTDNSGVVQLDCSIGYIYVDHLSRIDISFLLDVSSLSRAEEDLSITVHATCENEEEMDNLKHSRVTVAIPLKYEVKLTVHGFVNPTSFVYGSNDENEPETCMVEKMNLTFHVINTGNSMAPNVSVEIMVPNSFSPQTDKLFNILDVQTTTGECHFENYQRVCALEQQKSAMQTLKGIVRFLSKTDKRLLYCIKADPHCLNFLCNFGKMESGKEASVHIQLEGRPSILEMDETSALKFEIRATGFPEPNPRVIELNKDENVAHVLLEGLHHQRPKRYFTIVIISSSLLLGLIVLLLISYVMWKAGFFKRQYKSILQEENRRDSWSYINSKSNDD
T1 sequence (P26010 20-798): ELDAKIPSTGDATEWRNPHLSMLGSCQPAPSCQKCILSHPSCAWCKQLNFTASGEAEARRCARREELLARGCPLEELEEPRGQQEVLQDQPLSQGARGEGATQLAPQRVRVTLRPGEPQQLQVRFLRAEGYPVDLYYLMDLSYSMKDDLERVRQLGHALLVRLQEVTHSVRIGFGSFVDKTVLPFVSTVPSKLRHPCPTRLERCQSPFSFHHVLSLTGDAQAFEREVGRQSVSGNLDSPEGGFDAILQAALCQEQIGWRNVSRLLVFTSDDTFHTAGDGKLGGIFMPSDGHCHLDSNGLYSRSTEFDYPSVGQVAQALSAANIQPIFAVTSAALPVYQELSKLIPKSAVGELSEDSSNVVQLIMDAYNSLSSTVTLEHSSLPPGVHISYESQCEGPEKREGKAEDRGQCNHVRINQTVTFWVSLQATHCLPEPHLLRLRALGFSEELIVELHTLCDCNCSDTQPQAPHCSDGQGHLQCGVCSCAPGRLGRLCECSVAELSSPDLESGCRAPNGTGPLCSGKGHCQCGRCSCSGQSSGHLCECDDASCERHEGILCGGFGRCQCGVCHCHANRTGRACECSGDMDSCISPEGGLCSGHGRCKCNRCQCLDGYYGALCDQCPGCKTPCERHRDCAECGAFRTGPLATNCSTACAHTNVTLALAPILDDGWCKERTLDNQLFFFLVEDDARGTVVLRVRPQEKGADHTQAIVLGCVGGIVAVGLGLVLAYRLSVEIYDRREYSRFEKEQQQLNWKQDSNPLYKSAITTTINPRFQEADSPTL
Test: Cell adhesion assay, RPMI8866 cells on MAdCAM coated plates (Example 7)
Format: cell-based
Settings: RPMI8866 cells adhering to recombinant human MAdCAM, read-out: CA Assay (Example 7)
Experimental: Three in vitro assays were used to examine the α4β7 mechanistic process used by cells: 1) ligand:receptor affinity, 2) the avidity of those interactions on a cell's surface, and 3) how those interactions fare under an imposing force. In Example 5, a Fluorescence Polarization (FP) assay is used to measure compound activity through binding competition with the fluorescein-labeled peptide. In Example 6, the potency of compounds against α4β7 is measured in the cell-based ligand binding assay (LBA), using RPMI 8866 cells incubated with the compound samples in competition with soluble MAdCAM-1 ligand. In Example 7, activity of compounds is evaluated in a cell adhesion assay that mechanistically tests what occurs in vivo when trafficking cells utilize α4β7 to adhere to MAdCAM-1 expressing HEVs of the gut during the extravasation process. In the cell adhesion assay of Example 7, a MAdCAMI1-(Fc) is coated on plastic, and α4β7 expressing cells (RPMI-8866) are allowed to adhere to the coated surface in the presence of the test compounds. Next, the force of washing with buffer is applied to cells thereby testing the strength of that adhesion. Unattached cells are removed and the remaining adherent cells are quantified.
Example 7 describes a cell adhesion assay.
To each well of a 96 well plate, 100 ug of recombinant human MAdCAM in 100 ul PBS is added and incubated overnight at 4° C. After incubation MAdCAM is removed by aspiration and 200 ul of PBS+1% BSA is added to block the plate for 2 hours at 37° C. and 5% CO2. During this incubation dilution curves of compound are made in 100% DMSO in 96 well V bottom plates. 1.75 ul of diluted compounds are then transferred to a new 96 well U bottom plate containing 20 ul of assay media (phosphate free DMEM+25 mM HEPES+1% BSA). To this an additional 155 ul of assay media is added with mixing by pipetting up and down. This mixture is allowed to incubate for 15 minutes at 37° C. and 5% CO2. After incubation 175 ul of assay media containing 2e6/mL RPMI8866 cells is added to compound containing wells without mixing and plate is allowed to incubate for another 15 minutes at 37° C. and 5% CO2. During this incubation MAdCAM coated plates are removed from incubator and washed twice with 200 ul PBS+0.1% BSA. […] This plate is then incubated at 37° C. and 5% CO2 for 1 hour. After incubation plates are washed twice with 200 ul and once with 50 ul of phenol free RPMI+1% BSA. A final 50 ul of phenol free RPMI+1% BSA is added to wells after last wash. Next 50 ul of Promega cell titer glow is added to the wells. Plate is incubated on shaker for 2 minutes at 200 RPM followed by another 8 minutes off shaker before having the luminescence read on a Biotek Citation 5 plate reader. Raw data is converted to % inhibition compared to bottom of curve and analyzed using a 4-parameter non linear curve in Prism to determine IC50 and IC90.

Row | Structure (SMILES) | IC50 (Table 4 comparative compounds) [µM] | IC50 (Table 3) [µM]
1 | Cc1cccc(C)c1-c1cccc([C@H](CC(=O)O)NC(=O)[C@H](CC(C)C)n2cc(CCN(C)C)ccc2=O)c1 | 0.005 to 0.01 | 
2 | Cc1cccc(C)c1-c1cccc([C@H](CC(=O)O)NC(=O)[C@H](CC(C)C)n2ccc(CCN(C)C)cc2=O)c1 | 0.01 to 0.05 | 
3 | Cc1cccc(C)c1-c1cccc([C@H](CC(=O)O)NC(=O)[C@H](CC(C)C)n2cccc(CCN(C)C)c2=O)c1 | > 0.1 | 
4 | Cc1cccc(C)c1-c1cccc([C@H](CC(=O)O)NC(=O)[C@H](CC(C)C)n2cc(CN3CC[C@@H](F)C3)ccc2=O)c1 | 0.01 to 0.05 | 
5 | Cc1cccc(C)c1-c1cncc([C@H](CC(=O)O)NC(=O)[C@H](CC(C)C)n2ccc(C(F)(F)F)cc2=O)c1 | 0.01 to 0.05 | 
6 | Cc1ccn([C@@H](CC(C)C)C(=O)N[C@@H](CC(=O)O)c2cncc(-c3c(C)cccc3C)c2)c(=O)c1 | 0.01 to 0.05 | 
7 | Cc1cccc(C)c1-c1cncc([C@H](CC(=O)O)NC(=O)C(CC(C)C)n2cc(C(F)(F)F)ccc2=O)c1 (stereo partly drawn) | > 0.05 | 
8 | Cc1cccc(C)c1-c1cncc([C@H](CC(=O)O)NC(=O)[C@H](CC(C)C)n2cc(CN3CC(F)C3)ccc2=O)c1 | > 0.05 | 
9 | Cc1cccc(C)c1-c1cncc([C@H](CC(=O)O)NC(=O)[C@H](CC(C)C)N2CC[C@@H](C(F)(F)F)CC2=O)c1 | > 0.05 | 
10 | CC(C)C[C@@H](C(=O)N[C@@H](CC(=O)O)c1ccc(-c2ccc(F)cc2)cc1)n1cc(CCN(C)C)c(C(F)(F)F)cc1=O | > 0.5 | 
11 | CC(C)C[C@@H](C(=O)N[C@@H](CC(=O)O)c1ccc(-c2ccc(F)cc2)cc1)n1cc(CCN2CC(F)C2)cc(F)c1=O | > 0.5 | 
12 | CC(C)C[C@@H](C(=O)N[C@@H](CC(=O)O)c1ccc(-c2ccccc2)cc1)n1cc(CCN2CC(F)C2)cc(F)c1=O | > 0.5 | 
13 | Cc1ccccc1-c1cccc([C@H](CC(=O)O)NC(=O)[C@H](CC(C)C)n2cccc(C)c2=O)c1 | > 0.5 | 
14 | CC(C)C[C@@H](C(=O)N[C@@H](CC(=O)O)c1ccc(-c2ccccc2)cc1)n1cc(CCN(C)C)c(C(F)(F)F)cc1=O | > 0.5 | 
15 | Cc1ccccc1-c1cc([C@H](CC(=O)O)NC(=O)[C@H](CC(C)C)n2ccccc2=O)ccc1C | > 0.5 | 
16 | Cc1ccccc1-c1cccc([C@H](CC(=O)O)NC(=O)[C@H](CC(C)C)n2ccncc2=O)c1 | > 0.5 | 
17 | COc1cccc(F)c1-c1cccc([C@H](CC(=O)O)NC(=O)[C@H](CC(C)C)n2cnc3ccccc3c2=O)c1 | > 0.5 | 
18 | Cc1ccccc1-c1cccc([C@H](CC(=O)O)NC(=O)[C@H](CC(C)C)n2ccccc2=O)c1 | > 0.5 | 

Row | Structure (SMILES) | IC50 (Table 4 comparative compounds) [µM] | IC50 (Table 3) [µM]
19 | Cc1ccccc1-c1cc([C@H](CC(=O)O)NC(=O)C(CC(C)C)n2ccccc2=O)ccn1 (stereo partly drawn) | > 0.5 | 
20 | COc1ccc([C@H](CC(=O)O)NC(=O)C(CC(C)C)n2ccccc2=O)cc1-c1ccccc1C (stereo partly drawn) | > 0.5 | 
21 | Cc1ccc([C@@H](C(=O)N[C@@H](CC(=O)O)c2cncc(-c3c(C)cccc3C)c2)N2CC(C)CCC2=O)cc1 (stereo partly drawn) | > 0.5 | 
22 | Cc1cccc(C)c1-c1cc([C@H](CC(=O)O)NC(=O)[C@H](CC(C)C)n2ccccc2=O)ccn1 | > 0.5 | 
23 | Cc1ccccc1-c1cc([C@H](CC(=O)O)NC(=O)C(CC(C)C)n2ccccc2=O)ccc1C#N (stereo partly drawn) | > 0.5 | 
24 | COC[C@@H](C(=O)N[C@@H](CC(=O)O)c1cccc(-c2c(C)cccc2C)c1)n1ccc(C)cc1=O | > 0.5 | 
25 | Cc1cccc(C)c1-c1cncc([C@H](CC(=O)O)NC(=O)[C@H](CC(C)C)n2ccccc2=O)c1 | > 0.1 | 
26 | Cc1cc(C)c(-c2cc(C)c(F)c([C@H](CC(=O)O)NC(=O)C(CC(C)C)n3cc(CCN(C)C)c(C(F)(F)F)cc3=O)c2)c(C)c1 (single isomer, unassigned) [AC-P2] |  | < 0.005
27 | Cc1cc(-c2c(C)ccc(F)c2C)cc([C@H](CC(=O)O)NC(=O)C(CC(C)C)n2cc(CCN3CCC3)c(C(F)(F)F)cc2=O)c1F (single isomer, unassigned) [AF-P2] |  | < 0.005
28 | COc1ccc(C)c(-c2cc(C)c(F)c([C@H](CC(=O)O)NC(=O)C(CC(C)C)n3cc(CCN4CCC4)c(C(F)(F)F)cc3=O)c2)c1C (single isomer, unassigned) [AG-P2] |  | < 0.005
29 | Cc1cc(-c2c(C)cccc2C)cc([C@H](CC(=O)O)NC(=O)C(CC(C)C)n2cc(CCN3CC(F)C3)cc(F)c2=O)c1F (single isomer, unassigned) [AV-P2] |  | < 0.005
30 | Cc1cccc(C)c1-c1cc([C@H](CC(=O)O)NC(=O)C(CC(C)C)n2cc(CCN3CCC3)c(C(F)(F)F)cc2=O)c(F)c(C(F)(F)F)c1 (single isomer, unassigned) [G-P2] |  | < 0.005
31 | Cc1cccc(C)c1-c1cccc([C@H](CC(=O)O)NC(=O)[C@H](CC(C)C)n2cc(CN3CC(F)C3)ccc2=O)c1 [drawing 572] | > 0.05 | 
32 | Cc1cccc(C)c1-c1cccc([C@H](CC(=O)O)NC(=O)[C@H](CC(C)C)n2cc(CN3CC(F)C3)ccc2=O)c1 [drawing 577] | > 0.05 | 
33 | Cc1cccc(C)c1-c1cccc([C@H](CC(=O)O)NC(=O)[C@H](CC(C)C)n2cc(CN3CC(F)C3)ccc2=O)c1 [drawing 585] | > 0.05 | 
34 | Cc1cccc(C)c1-c1cccc([C@H](CC(=O)O)NC(=O)[C@H](CC(C)C)n2cc(CN3CC(F)C3)ccc2=O)c1 [drawing 589] | > 0.05 | 
35 | Cc1cccc(C)c1-c1cccc([C@H](CC(=O)O)NC(=O)[C@H](CC(C)C)n2cc(CN3CC(F)C3)ccc2=O)c1 [drawing 594] | > 0.05 | 
36 | Cc1cccc(C)c1-c1cccc([C@H](CC(=O)O)NC(=O)[C@H](CC(C)C)n2cc(CN3CC(F)C3)ccc2=O)c1 [drawing 599] | < 0.005 | 
